Where two headings read alike, the source gives them in different places.
What was measured:
vtg1 - mRNA = conditions: cited from earlier work
vitellogenin 1 (vtg1) = experiment: vtg1 gene expression (qPCR) in exposed zebrafish embryos; conditions: for EC50: Danio rerio, read-out: EC50 vtg1; for LogEC50 (vtg1 mRNA): log of EC50 in μM, 48-120 h, our study
aromatase (cyp19a1) = experiment: cyp19a gene expression (qPCR) in exposed zebrafish embryos; assay type: in vivo, zebrafish (Danio rerio); conditions: exposed 48–120 hpf; Figure S1
[1] = system: brain aromatase (cyp19a1b); experiment: cyp19a1b gene expression (qPCR) in exposed zebrafish embryos; assay type: in vivo, zebrafish (Danio rerio)
vtg - blood [2] = conditions: cited from earlier work; for LogEC50 (vtg - blood): log of EC50 in μM
cyp19a1b - mRNA [3] = conditions: cited from earlier work
cyp19a1b - fluorescence = conditions: 0-96 h, cited from earlier work; for LogEC50 (cyp19a1b - fluorescence): log of EC50 in μM
vtg1 - fluorescence = conditions: 21 days (adults), cited from earlier work
vtg - blood [4] = conditions: 21 days (adults), cited from earlier work; for EC50: read-out: EC50 (vtg - blood); for LogEC50 (vtg - blood): log of EC50 in μM
cyp19a1b - mRNA [5] = conditions: 14 days (adults), cited from earlier work
cyp19a1b - mRNA [6] = conditions: cited from earlier work; for LogEC50 (cyp19a1b - mRNA): log of EC50 in μM
vtg - blood [7] = conditions: 8 days (adults), cited from earlier work
carp hepatocytes = system: carp hepatocytes; set-up: method as in PMID 10478856; conditions: concentrations up to 100 µM; cited from earlier work
cyp19a1b - vtg1 mRNA = experiment: estrogenic markers considered together (cyp19a1b - vtg1 mRNA), zebrafish embryos; conditions: Danio rerio, read-out: EC50 (cyp19a1b - vtg1 mRNA), class symbol
thyroid peroxidase (tpo) = experiment: tpo gene expression (qPCR) in exposed zebrafish embryos; assay type: in vivo, zebrafish (Danio rerio); conditions: for EC50: Danio rerio
pax8 = pax8 gene expression (qPCR) in exposed zebrafish embryos; assay type: in vivo, zebrafish (Danio rerio); conditions: exposed 48–120 hpf
transthyretin (ttr) = experiment: ttr gene expression (qPCR) in exposed zebrafish embryos; assay type: in vivo, zebrafish (Danio rerio); conditions: for EC50: Danio rerio
[8] = system: iodothyronine deiodinase 1 (dio1); experiment: dio1 gene expression (qPCR) in exposed zebrafish embryos; assay type: in vivo; conditions: Danio rerio; exposed 48–120 hpf; Figure 4; no unit printed for this gene
[9] = acute toxicity test from 48–120 hpf based on the OECD FET test; assay type: in vivo, zebrafish (Danio rerio); conditions: in vivo; zebrafish embryos exposed 48–120 hpf
Description: Twenty embryos per treatment were exposed to 5 concentrations of compound of interest in a 10× dilution factor from 48–120 hpf, which is the experimental time in which EDCs will be screened posteriorly. Embryos were exposed from 48–120 hpf rather than 0–96 hpf or 0–120 hpf to avoid unspecific toxicity outside of the EDC testing period, which have been chosen on the basis that endocrine pathways, e.g., thyroid metabolism, are not fully functional until 40–55 hpf in zebrafish embryos. Stock solutions of chemicals to be tested were freshly prepared in exposure medium. The highest concentration for each compound was selected according to its water solubility (Table S1). Exposures were performed in glass vessels to assure maximum bioavailability for hydrophobic compounds, and medium was not exchanged during the experiment.

[10] = system: iodothyronine deiodinase 2 (dio2); experiment: dio2 gene expression (qPCR) in exposed zebrafish embryos; assay type: in vivo, zebrafish (Danio rerio); conditions: for EC50: Danio rerio
[11] = E2 1 µM alone, rescue experiment
[12] = ref [3] (supplement list: Brion 2012)
[13] = exogenous T3, 48–120 hpf, downregulated

For C[C@]12CC[C@@H]3c4ccc(O)cc4CC[C@H]3[C@@H]1CC[C@@H]2O [E2, 17β-estradiol], the EC50 (vtg1 - mRNA; 0-120 h, * mean of an approximate range, ref [11] (supplement list: Muncke 2006), read-out: EC50 (vtg1 - mRNA)) is given as roughly 30 nM, the EC50 (vtg1 - mRNA; 0-168 h, * mean of an approximate range, ref [10] (supplement list: Chen 2018), read-out: EC50 (vtg1 - mRNA)) is given as roughly 180 nM and the “LogEC50 (vtg1 - mRNA)” value (vtg1 - mRNA; log of EC50 in μM, 0-120 h, ref [11] (supplement list)) is given as -1.523. For the same molecule, the “LogEC50 (vtg1 - mRNA)” value (vtg1 - mRNA; log of EC50 in μM, 0-168 h, ref [10] (supplement list)) was -0.757, the EC50 (vitellogenin 1 (vtg1)) was 190 nM and the “FI vtg1, single exposure” value (vitellogenin 1 (vtg1); [11]) was 394.39. The “LogEC50 (vtg1 mRNA)” value (vitellogenin 1 (vtg1)) was -0.7212, the “response of cyp19a” value (aromatase (cyp19a1)) was “no response” and the EC50 ([1]; Danio rerio, zebrafish embryos exposed 48–120 hpf, mRNA by qPCR) was 90 nM. For the same molecule, the “FI cyp19a1b, single exposure” value [1, 11] was 64.54, the “LogEC50 (cyp19a1b mRNA)” value ([1]; log of EC50 in μM, 48-120 h, our study) was -1.046 and the EC50 (vtg - blood [2]; 14 days (adults), ref [14] (supplement list: Brian 2005)) was 0.09 nM. The EC50 (vtg - blood [2]; 24 days (adults), ref [13] (supplement list: Van den Belt 2004)) was 0.6 nM, the “LogEC50 (vtg - blood)” value (vtg - blood [2]; 14 days (adults), ref [14] (supplement list)) was -4.046 and the “LogEC50 (vtg - blood)” value (vtg - blood [2]; 24 days (adults), ref [13] (supplement list)) was -3.222. For the same molecule, the “EC50 (cyp19a1b - mRNA), class symbol” value (cyp19a1b - mRNA [3]; 7 days (adults), ref [7] (supplement list: Hinfray 2006)) was “n.e”, the “EC50 (cyp19a1b - mRNA), class symbol” value (cyp19a1b - mRNA [3]; 21 days (adults), ref [8] (supplement list: Kallivretaki 2006)) was “n.e” and the EC50 (cyp19a1b - fluorescence; ref [2] (supplement list: Petersen 2013)) was 3.4 nM. The EC50 (cyp19a1b - fluorescence; [12]) was 2.4 nM, the “LogEC50 (cyp19a1b - fluorescence)” value (cyp19a1b - fluorescence; ref [2] (supplement list)) was -2.469 and the “LogEC50 (cyp19a1b - fluorescence)” value (cyp19a1b - fluorescence; ref [3] (supplement list)) was -2.62. For the same molecule, the EC50 (vtg1 - fluorescence; ref [17] (supplement list: Zeng 2005)) was roughly 0.55 nM, the “LogEC50 (vtg1 - fluorescence)” value (vtg1 - fluorescence; log of EC50 in μM, ref [17] (supplement list)) was -3.26 and the EC50 (vtg - blood [4]; * mean of an approximate range, ref [16] (supplement list: Parks 1999)) was roughly 0.6 nM. The EC50 (vtg - blood [4]; ref [15] (supplement list: Dammann 2011)) was 0.09 nM, the “LogEC50 (vtg - blood)” value (vtg - blood [4]; ref [15] (supplement list)) was -4.046 and the “LogEC50 (vtg - blood)” value (vtg - blood [4]; ref [16] (supplement list)) was -3.222. The EC50 (cyp19a1b - mRNA [5]; effects only detected in males, ref [9] (supplement list: Halm 2002)) was 0.4 nM, the “LogEC50 (cyp19a1b - mRNA)” value (cyp19a1b - mRNA [5]; log of EC50 in μM, males, ref [9] (supplement list)) was -3.398 and the EC50 (cyp19a1b - mRNA [6]; 0-72 h, * mean of an approximate range, ref [4] (supplement list: Lassiter 2007)) was roughly 10 nM. The EC50 (cyp19a1b - mRNA [6]; 0-96 h, ref [3] (supplement list: Brion 2012)) was 4.1 nM, the EC50 (cyp19a1b - mRNA [6]; 2-48 h, * mean of an approximate range, ref [6] (supplement list: Kishida 2001)) was roughly 10 nM and the EC50 (cyp19a1b - mRNA [6]; 72-96 h, * mean of an approximate range, ref [5] (supplement list: Chung 2011)) was roughly 5.5 nM. The “LogEC50 (cyp19a1b - mRNA)” value (cyp19a1b - mRNA [6]; 0-72 h, ref [4] (supplement list)) was -2, the “LogEC50 (cyp19a1b - mRNA)” value (cyp19a1b - mRNA [6]; 0-96 h, ref [3] (supplement list)) was -2.387 and the “LogEC50 (cyp19a1b - mRNA)” value (cyp19a1b - mRNA [6]; 2-48 h, ref [6] (supplement list)) was -2. For the same molecule, the “LogEC50 (cyp19a1b - mRNA)” value (cyp19a1b - mRNA [6]; 72-96 h, ref [5] (supplement list)) was -2.26, the EC50 (vtg - blood [7]; ref [12] (supplement list: Rose 2002)) was 0.2 nM and the “LogEC50 (vtg - blood)” value (vtg - blood [7]; log of EC50 in μM, ref [12] (supplement list)) was -3.699.
In the case of O=S1OCC2C(CO1)C1(Cl)C(Cl)=C(Cl)C2(Cl)C1(Cl)Cl (centres unmarked) [END, endosulfan], the “induction of vitellogenesis in carp hepatocytes” value (carp hepatocytes) is given as “not able to induce vitellogenesis”, the EC50 (cyp19a1b - vtg1 mRNA) is given as greater than 4000 nM and the EC50 (thyroid peroxidase (tpo); read-out: EC50 tpo) is given as 60 nM. For the same molecule, the EC50 (vtg1 - mRNA; 6-96 h, ref [25] (supplement list: Moon 2016), read-out: EC50 (vtg mRNA)) was 1960 nM, the “LogEC50 (vtg mRNA)” value (vtg1 - mRNA; log of EC50 in μM, 6-96 h, ref [25] (supplement list)) was 0.2923 and the “FI vtg1 at the most effective concentration” value (vitellogenin 1 (vtg1); 4 µM, compared to controls, downregulation) was 0.35. The EC50 (vitellogenin 1 (vtg1)) was 330 nM, the “LogEC50 (vtg1 mRNA)” value (vitellogenin 1 (vtg1)) was -0.4815 and the “downregulation of vtg1 expression compared to controls” value (vitellogenin 1 (vtg1); most effective concentration (4 µM)) was “more than 50%”. The “effect on expression of cyp19a1b” value ([1]; exposed 48–120 hpf) was “not affecting expression” and the “EC50 (cyp19a1b - fluorescence), class symbol” value (cyp19a1b - fluorescence; [12]) was “n.e”.
With N[C@@H](Cc1cc(I)c(Oc2ccc(O)c(I)c2)c(I)c1)C(=O)O [T3, 3,3′,5-triiodo-L-thyronine] the “response of pax8” value (pax8) was “lack of response”, the EC50 (thyroid peroxidase (tpo); read-out: EC50 tpo, exposed 48–120 hpf, Figure 4, upregulated) was 9.93 nM and the EC50 (thyroid peroxidase (tpo); read-out: EC50 tpo, exposure 48–120 hpf, Figure 1, comparison of exposure windows, 48–120 hpf) was 4.09 nM. The EC50 (thyroid peroxidase (tpo); read-out: EC50 tpo, zebrafish embryos exposed 48–120 hpf, mRNA by qPCR) was 10 nM, the “effect on tpo expression, exposure 0–96 hpf” value (thyroid peroxidase (tpo); embryos exposed from 0–96 hpf) was “slight decrease” and the FI tpo (thyroid peroxidase (tpo); exogenous T3, 48–120 hpf, upregulated) was 4.11. For the same molecule, the EC50 (transthyretin (ttr); read-out: EC50 ttr, exposed 48–120 hpf, Figure 4, downregulated) was 0.31 nM, the EC50 (transthyretin (ttr); read-out: EC50 ttr, exposure 0–96 hpf, Figure 1, comparison of exposure windows, 0–96 hpf) was 0.49 nM and the EC50 (transthyretin (ttr); read-out: EC50 ttr, exposure 48–120 hpf, Figure 1, comparison of exposure windows, 48–120 hpf) was 0.32 nM. It also gave an EC50 (transthyretin (ttr); read-out: EC50 ttr, zebrafish embryos exposed 48–120 hpf, mRNA by qPCR) of 0.3 nM, an FI ttr (transthyretin (ttr); [13]) of 0.49 and an EC50 [8] of 3.58 nM. For the same molecule, the LC50 [9] was 6000 nM, the EC50 ([10]; read-out: EC50 dio2, exposed 48–120 hpf, Figure 4, downregulated) was 0.28 nM and the EC50 ([10]; read-out: EC50 dio2, exposure 0–96 hpf, Figure 1, comparison of exposure windows, 0–96 hpf) was 6.81 nM. For the same molecule, the EC50 ([10]; read-out: EC50 dio2, exposure 48–120 hpf, Figure 1, comparison of exposure windows, 48–120 hpf) was 1.23 nM, the EC50 ([10]; read-out: EC50 dio2, zebrafish embryos exposed 48–120 hpf, mRNA by qPCR) was 0.3 nM and the “FI dio2” value [10, 13] was 0.26.
